From US6495160B2, “Biphasic multicomponent pharmaceutical dosage forms containing substances able to modify the partitioning of drugs” (Eurand International S.p.A., priority 1997, dated 2002)

Assay: Apparent partition coefficient (Pm) between oil and water phases
Assay type: physicochemical
Details: oily phase Labrafac Hydro, benzyl alcohol 1:1, 24 hours
Procedure: The water volume contained a starting concentration of active principle (C0) which was lower than the solubility of the active principle in each of the two phases. At the end of the experiment, the concentrations of active principle in the water phase (CA) were measured by cromatography (HPLC).

CS(=O)(=O)Nc1ccc([N+](=O)[O-])cc1Oc1ccccc1 [NIME, Nimesulide]
Partition coefficient (Pm) of the Active Principle (NMP 0% in aqueous phase): 1.75
Partition coefficient (Pm) of the Active Principle (NMP 5% in aqueous phase): 36.7
Partition coefficient (Pm) of the Active Principle (NMP 10% in aqueous phase): 63.5
Partition coefficient (Pm) of the Active Principle (NMP 15% in aqueous phase): 98.3
Partition coefficient (Pm) of the Active Principle (NMP 20% in aqueous phase): 29.6
